The values below come from ChEMBL document CHEMBL1141023, “DNA gyrase (GyrB)/topoisomerase IV (ParE) inhibitors: synthesis and antibacterial activity” (Bioorg Med Chem Lett, 2009).

Converted amounts (≈) assume the structure as drawn.

For series [1], the system named is Streptococcus pyogenes. Briefly: Antibacterial activity against Streptococcus pyogenes ATCC 51339. Format: functional.
In series [2] the test system is Staphylococcus aureus. Briefly: Antibacterial activity against Staphylococcus aureus ATCC 29213. Format: functional.
In series [3] the test system is Escherichia coli. The series can be described thus: Antibacterial activity against efflux pump mutant expressing Escherichia coli ATCC N43. Format: functional.
The nature of series [4]: Inhibition of Escherichia coli GyrB ATPase activity assessed as inorganic phosphate release by malachite green complex formation assay.
Series [5] has as its system Enterococcus faecalis. The series can be described thus: Antibacterial activity against Enterococcus faecalis ATCC 29212. Format: functional.
Series [6] is described as follows: Inhibition of Escherichia coli DNA topoisomerase 4 subunit B ParE assessed as inorganic phosphate release by malachite green complex formation assay.
Series [7] deals with Haemophilus influenzae. The series can be described thus: Antibacterial activity against Haemophilus influenzae ATCC 49247. It is filed as functional.
In series [8] the test system is Staphylococcus aureus. The series can be described thus: Antibacterial activity against methicillin-susceptible Staphylococcus aureus 601055. It is filed as functional.
Series [9] relates to Enterococcus faecalis. The series can be described thus: Antibacterial activity against vancomycin-resistant Enterococcus faecalis 1.5604. It is filed as functional.
For series [10], the system named is Staphylococcus aureus. The series can be described thus: Antibacterial activity against methicillin-susceptible Staphylococcus aureus Smith ATCC 19636. Format: functional.
Series [11] concerns Streptococcus pneumoniae. Briefly: Antibacterial activity against Streptococcus pneumoniae ATCC 49619. It is filed as functional.
In series [12] the test system is Escherichia coli. The series can be described thus: Antibacterial activity against Escherichia coli ATCC 25922. It is filed as functional.
Series [13] relates to Staphylococcus aureus. The series can be described thus: Antibacterial activity against methicillin-resistant Staphylococcus aureus ATCC 700698. It is filed as functional.
The test system of series [14] is Moraxella catarrhalis. Briefly: Antibacterial activity against Moraxella catarrhalis ATCC 25240. It is filed as functional.
A short description of series [15]: Toxicity against human HepG2 cells assessed as effect on mitochondrial dehydrogenase activity after 24 hrs. It is filed as cell-based.
Series [16] deals with Staphylococcus aureus. Briefly: Antibacterial activity against methicillin-resistant Staphylococcus aureus 43300. Format: functional.
Series [17] has as its system Pseudomonas aeruginosa. The series can be described thus: Antibacterial activity against Pseudomonas aeruginosa 101021. It is filed as functional.

As to `CCNC(=O)Nc1nc2cc(-c3cccnc3)cc(C(=O)O)n2n1`, the MIC in series [1], in [2], in series [3] and in series [5] was > 256 µg/mL throughout. Also, in [4], the IC50 stood at 2800 nM.
For `CCNC(=O)Nc1cn2ccc(-c3cccnc3)cc2n1`, the MIC in [2], in series [3] and in series [5] was 32 µg/mL (≈ 114 µM) in each case. The 50% inhibitory concentration (IC50) in [4] is 390 nM.
Regarding `CCNC(=O)Nc1nc2cc(-c3cccnc3)cc(-c3cncnc3)n2n1`, the MIC in series [1], in [2], in series [3] and in series [5] was > 256 µg/mL throughout. Further, the IC50 in series [4] was determined as 1500 nM.
Consider `CCNC(=O)Nc1nc2cc(-c3cccnc3)cc(C(=O)NC)n2n1`, for which the MIC in series [1] came out at 8 µg/mL (≈ 23.6 µM); in [2], 8 µg/mL (≈ 23.6 µM); in series [3], 8 µg/mL (≈ 23.6 µM); in [5] it was 4 µg/mL (≈ 11.8 µM). Moreover, the IC50 in series [4] was 640 nM.
Take `CCNC(=O)Nc1nc2cc(-c3cccnc3)cc(-c3ccccc3)n2n1`: the MIC was 128 µg/mL (≈ 357 µM) in series [1], > 256 µg/mL in series [2], 32 µg/mL (≈ 89.3 µM) in series [3] and 32 µg/mL (≈ 89.3 µM) in series [5]. Moreover, the IC50 in series [4] came to 150 nM.
As for `CCNC(=O)Nc1nc2cc(-c3cccnc3)cc(-c3ccccc3F)n2n1`, the MIC in [1], in [2], in series [3] and in [5] was > 256 µg/mL throughout. The IC50 in series [4] was 1520 nM.
Take `CCNC(=O)Nc1nc2cc(-c3cccnc3)cc(-c3cccc(OC)c3)n2n1`: the MIC in series [1], in series [2], in series [3] and in series [5] was > 128 µg/mL throughout. Besides, in series [4], the half-maximal inhibitory concentration (IC50) turned out to be 510 nM.
For `CCNC(=O)Nc1nc2cc(-c3cccnc3)cc(-c3cnccn3)n2n1`, the MIC in series [1], in series [2], in series [3] and in series [5] was > 128 µg/mL in each case. In [4], the IC50 was 980 nM.
`CCNC(=O)Nc1nc2cc(-c3cccnc3)cc(-c3cccnc3)n2n1`: the MIC in series [1], in series [2], in series [3] and in series [5] was > 256 µg/mL throughout. Besides, the concentration for half-maximal inhibition (IC50) in series [4] was 610 nM.
Regarding `CCNC(=O)Nc1nc2cc(-c3cccnc3)cc(-c3ccccn3)n2n1`, the MIC in series [1] is > 256 µg/mL; in [2] it was > 256 µg/mL; in series [3] it was > 256 µg/mL; in series [5], 32 µg/mL (≈ 89 µM). For the same molecule, the IC50 in series [4] was 890 nM.
On to `CCNC(=O)Nc1nc2cc(-c3cccnc3)cc(-c3nccs3)n2n1`, for which the MIC in [1] is 1 µg/mL (≈ 2.74 µM); in [7], > 128 µg/mL; in series [8], 1 µg/mL (≈ 2.74 µM); in series [9], 1 µg/mL (≈ 2.74 µM); in series [2] it was 1 µg/mL (≈ 2.74 µM); in series [3], > 128 µg/mL. For the same molecule, the MIC in [10] is 1 µg/mL (≈ 2.74 µM); in [11], 1 µg/mL (≈ 2.74 µM); in series [12], > 128 µg/mL; in series [13] it was 0.5 µg/mL (≈ 1.37 µM); in series [14], 0.5 µg/mL (≈ 1.37 µM); in series [5], 1 µg/mL (≈ 2.74 µM). Besides, the MIC was 1 µg/mL (≈ 2.74 µM) in series [16] and > 128 µg/mL in series [17]. Further, the IC50 was determined as 11000 nM in series [6] and 42 nM in [4]. The half-maximal inhibitory concentration (IC50) at 24 h in series [15] is > 64 µg/mL.
On to `CCNC(=O)Nc1nc2ccc(-c3cccnc3)cn2n1`, for which the MIC in [2] and in series [5] was > 256 µg/mL in each case. Besides, the IC50 in series [4] amounted to 9640 nM.
Consider `CCNC(=O)Nc1nc2cc(-c3cccnc3)cc(C(=O)OC)n2n1`, for which the MIC in series [1], in series [2], in series [3] and in series [5] was > 256 µg/mL in each case. In series [4], the half-inhibitory concentration (IC50) was 1300 nM.
With `CCNC(=O)Nc1nc2cc(-c3cccnc3)cc(-c3cccc(NC(C)=O)c3)n2n1`, the MIC in series [1], in series [2], in series [3] and in series [5] was > 256 µg/mL in each case. The IC50 in series [4] amounted to 1080 nM.
Regarding `CCNC(=O)Nc1nc2cc(-c3cccnc3)cc(-c3cnn(C)c3)n2n1`, the MIC in [1] was 32 µg/mL (≈ 88.3 µM); in series [2], 32 µg/mL (≈ 88.3 µM); in series [3] it was > 128 µg/mL; in [5] it was 8 µg/mL (≈ 22.1 µM). In addition, in series [4], the IC50 came to 340 nM.
As for `CCNC(=O)Nc1nc2cc(-c3cccnc3)cc(-n3cccn3)n2n1`, the MIC in series [1] was found to be 2 µg/mL (≈ 5.74 µM); in [7], 16 µg/mL (≈ 45.9 µM); in series [8] it was 4 µg/mL (≈ 11.5 µM); in series [9], 4 µg/mL (≈ 11.5 µM); in [2], 2 µg/mL (≈ 5.74 µM); in series [3], 4 µg/mL (≈ 11.5 µM). The MIC in [10] is 4 µg/mL (≈ 11.5 µM); in series [11] it was 2 µg/mL (≈ 5.74 µM); in series [12], > 128 µg/mL; in [13] it was 4 µg/mL (≈ 11.5 µM); in [14], 1 µg/mL (≈ 2.87 µM); in [5], 2 µg/mL (≈ 5.74 µM). Also, the MIC in [16] is 4 µg/mL (≈ 11.5 µM); in [17], > 128 µg/mL. The IC50 was determined as 25000 nM in series [6] and 54 nM in [4]. In series [15], the 50% inhibitory concentration (IC50) at 24 h is > 64 µg/mL.

Usually IC50 stands for the point on the concentration scale where inhibition reaches its midpoint.
